Literature values in patent US10507179B2, “Formulations of levosimendan for intravenous administration as infusion or injection and of infusion concentrate” (CARINOPHARM GmbH, priority 2015, dated 2019).
In brackets after ≈: the same amount, converted by molar mass. Several values for one entry are separate records, joined by “and”; a condition that tells them apart may be missing. Equal values may be shown once.

Experiments:
[1] = not given; remark: listed apart in the source

solubility (pH value of 2): 20 µg/mL (≈ 71.4 µM) | stability in aqueous solutions (physiological pH): not stable | solubility in phosphate buffer (room temperature, physiological pH of 7.4): 400 µg/mL (≈ 1430 µM) | pKa [1]: 6.3 and 6.26
SMILES: C[C@@H]1CC(=O)NN=C1c1ccc(NN=C(C#N)C#N)cc1 [Levosimendan, (−)-[[4-(1,4,5,6-tetrahydro-4-methyl-6-oxo-3-pyridazi-nyl)phenyl]hydrazono]propane dinitrile]
